# Source: ChEMBL document CHEMBL1201862, “PubChem BioAssay data set” (2004)
# Active and inactive are the calls of the source. Rule as the data show it: actives have a measured IC50 and inactives only a lower limit.
# Target: Envelope glycoprotein gp160 (Human immunodeficiency virus 1, UniProt Q6QLK5)
# Assay: cell-free HIV fusion peptide-binding blockers – biochemical, uHTS, fluorescence dequenching, […] (AID 1986)
# Chain of Envelope glycoprotein gp160 (Q6QLK5 whole entry, the tested form may be a part): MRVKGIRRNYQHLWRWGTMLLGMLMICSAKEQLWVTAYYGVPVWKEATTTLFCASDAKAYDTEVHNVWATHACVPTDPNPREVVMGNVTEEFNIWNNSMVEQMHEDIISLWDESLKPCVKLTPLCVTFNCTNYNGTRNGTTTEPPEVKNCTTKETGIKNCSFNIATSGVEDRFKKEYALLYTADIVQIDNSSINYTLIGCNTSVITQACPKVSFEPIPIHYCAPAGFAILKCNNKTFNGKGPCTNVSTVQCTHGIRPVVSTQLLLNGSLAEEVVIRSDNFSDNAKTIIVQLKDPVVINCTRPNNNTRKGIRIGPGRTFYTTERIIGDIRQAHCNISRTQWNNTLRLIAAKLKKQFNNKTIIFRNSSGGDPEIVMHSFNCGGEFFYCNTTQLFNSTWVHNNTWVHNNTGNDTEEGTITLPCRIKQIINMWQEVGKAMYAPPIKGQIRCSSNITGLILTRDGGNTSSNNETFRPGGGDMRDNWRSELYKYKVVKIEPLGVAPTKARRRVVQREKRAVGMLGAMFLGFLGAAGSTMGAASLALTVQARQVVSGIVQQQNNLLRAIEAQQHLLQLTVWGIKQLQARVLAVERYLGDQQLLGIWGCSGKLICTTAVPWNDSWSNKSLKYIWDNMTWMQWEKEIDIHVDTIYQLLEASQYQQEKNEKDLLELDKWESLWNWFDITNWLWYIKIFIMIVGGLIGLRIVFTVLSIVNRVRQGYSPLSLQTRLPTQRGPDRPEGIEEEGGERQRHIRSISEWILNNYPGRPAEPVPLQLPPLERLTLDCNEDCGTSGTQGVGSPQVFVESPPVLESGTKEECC
row,Compound,IC50
1,COc1ccc(O)c(C(=O)c2cc(SCC(=O)O)c3nc4sc5c(c4c(=O)n3c2)CCCC5)c1,14.2 µM (active)
2,COc1cc(/C=C2/C(=O)NN(c3ccc(C)c(Cl)c3)C2=O)cc([N+](=O)[O-])c1O,30.2 µM (active)
3,O=C(CCN1C(=O)/C(=C\c2ccccc2F)SC1=S)Nc1ccc(C(=O)O)c(O)c1,15.1 µM (active)
4,O=[N+]([O-])c1cc(Cl)cc(/C=N/NC(=S)Nc2ccc(S(=O)(=O)N3CCOCC3)cc2)c1O,28.2 µM (active)
